Here are results for four molecules from US7923471B2, “Method of treating dry eye disorders and uveitis” (Alcon, Inc., priority 2004, dated 2011).

The structures appear in SMILES notation. Marks after values point to notes of the source that are not given here.

The test system of assay [1] is endotoxin-induced uveitis in rats. Kind of assay: Endotoxin-induced uveitis in rats: ocular neutrophil (PMN) content by myeloperoxidase activity. It is filed as in vivo, female Lewis rats. Conditions: 24 h post endotoxin; for Myeloperoxidase (x ± standard deviation): 5 μL topical ocular at endotoxin injection and 4 h later, vehicle 164 ± 46. How it is done:
Compound 1 was evaluated for its ability to suppress neutrophil influx into the rat eye in a model of endotoxin-induced uveitis. The compound was prepared at concentrations of 0.01%, 0.1%, 1.0% w/v in an ophthalmic suspension vehicle, and dexamethasone (Sigma-Aldrich Company, St. Louis, Mo.) formulated in the same vehicle served as reference compound. Uveitis was induced by subplantar injection of endotoxin (200 μg in 0.1 mL saline) in the right hind paw of female Lewis rats (5/group). Test compound of vehicle (5 μL) was administered topically to each eye of the experimental animals at the time of endoxtoxin injection and again 4 hours later. Twenty four hours post endotoxin injection, animals were sacrificed by CO2 inhalation, and total ocular neutrophil (PMN) content was assessed indirectly by determination of myeloperoxidase activity. Ocular PMN content in each group was then compared with that observed in the vehicle-treated group using Dunnet's t-test.

The next assay concerns neutrophils. Conditions: compared with lipoxin A4; cited from earlier work.
Assay [2] concerns rabbit model of dry eye. Kind of assay: Rabbit model of dry eye (lacrimal gland ConA injection followed by desiccation): tear breakup time (TBUT). It is filed as in vivo, New Zealand white rabbits. Conditions: ConA-injected rabbit eyes, baseline = saline-injected, vehicle-treated eyes. The protocol:
A second group of animals was evaluated for tear film quality by measuring each animal's tear breakup time (TBUT). Using the same experimental protocol as above for inducing rabbit ocular damage, TBUT was determined daily by instilling 5 μL of sodium fluorescein into the cul de sac and manually blinking the lids to distribute the fluroescein within the tear film. Under slit lamp observation, the eye was held open and the time whereby one or more black spots or streaks appeared in the precorneal tear film was recorded. The rabbits were euthanized 3 days following ConA injection. Larger TBUT values indicate better tear film quality and more protection from ocular damage. TBUT data is expressed as % of baseline, with baseline TBUT being that observed for saline-injected, vehicle-treated eyes.
(§1) The % inhibition of corneal staining and TBUT data are presented below in table 1, with 15S-HETE (Biomol Research Laboratories, Plymouth Meeting, Pa.) treatment of ConA-injected eyes used as a positive control.

The test system of assay [3] is rabbit model of dry eye. Put plainly: Rabbit model of dry eye (lacrimal gland ConA injection followed by desiccation): corneal staining with methylene blue. The class given is in vivo, New Zealand white rabbits. Conditions: 50 μl topical twice a day, ConA-injected rabbit eyes, 72 h desiccation. How it is done:
Compound 1 was evaluated in a rabbit model of dry eye. New Zealand white rabbits (approximately 2.5 kg; obtained from Myrtle's Rabbitry, Thompson Station, Tenn.) were randomized and dosed topically twice a day with either 50 μl of compound 1 formulated in 0.064%/BSS® at concentrations of 1, 10, or 100 μM, or with 0.064%/BSS® vehicle. After 24 h the rabbits were anesthetized by subcutaneous administration of ketamine hydrochloride (30 mg/kg) and xylazine (6 mg/kg) and each rabbit received bilateral injections of Conconavilin A (ConA) (300 μg/30 μl) or saline (30 μl). Desiccation was initiated one day following lacrimal gland injection by placing conscious animals in an environmental chamber (20-30% humidity, […]). Following 72 hours of exposure to environment, the animals were assessed for corneal staining upon exposure of the cornea to the dye methylene blue; less staining indicates less damage to the cornea. The rabbits were anesthetized by subcutaneous administration of ketamine hydrochloride (30 mg/kg) and xylazine (6 mg/kg). Sutures were placed in each upper and lower eyelid and lifted to form a corneal/conjunctival cup. Methylene blue dye (1 mL, 1% in distilled water) was added to the cup for five minutes and the excess removed by washing with 200 mL of BSS®. The contralateral eye was then stained using the same procedure. Rabbits were euthanized immediately following the staining procedure and the eyes were excised. The corneas were isolated and a 9.5 mm punch of the cornea was placed overnight in 2 mL of acetone/saturated sodium sulfate (7:3 v/v). The concentration of the extracted dye was determined spectrophotometrically by measuring its absorbance at λ=660 nanometers (A660). Percent inhibition was calculated as {1−[(A660test item−A660Normal)/(A660BSS−A660Normal)]}×100, where A660test item is the absorbance of dye from ConA-injected eyes dosed with compound 1, A660Normal is the absorbance of dye from saline-injected eyes, and A660BSS is the absorbance of dye in ConA-injected eyes dosed with 0.064% ethanol/BSS® solution vehicle. A higher percent inhibition of staining indicates more protection of the cornea from damage.
as §1

Take `COC(=O)CCC[C@H](O)[C@H](O)CO` [Compound 1]: the “% inhibition (myeloperoxidase / ocular PMN content vs vehicle)” value in assay [1] (0.01 % w/v topical ocular) is 13%; in assay [1] (0.1 % w/v topical ocular) it was 2%; in assay [1] (1.0 % w/v topical ocular), 41* %. Moreover, the “Myeloperoxidase (x ± standard deviation)” value in assay [1] (0.01 % w/v) worked out at 143 ± 64 μM/min/100 mg; in assay [1] (0.1 % w/v), 161 ± 37 μM/min/100 mg; in assay [1] (1.0 % w/v), 97 ± 35 μM/min/100 mg. The “inhibition of LTB4-induced chemotaxis of neutrophils” value in the assay with neutrophils is reported as “as potently as lipoxin A4”. Moreover, the “TBUT, % of Baseline, ±S.D.” value was 67 ± 17^b % of Baseline in the assay with rabbit model of dry eye [2] (1 μM topical twice a day), 45 ± 17^b % of Baseline in the assay with rabbit model of dry eye [2] (10 μM topical twice a day) and 51 ± 18^b % of Baseline in the assay with rabbit model of dry eye [2] (100 μM topical twice a day). Further, the “% Inhibition of Corneal Staining, ±S.D.” value with rabbit model of dry eye [3] (1 μM) is 75 ± 12^b %; in the assay with rabbit model of dry eye [3] (10 μM) it was 54 ± 9^b,c %; with rabbit model of dry eye [3] (100 μM) it was 38 ± 34^b,c %.
As for `C[C@@H]1C[C@H]2[C@@H]3CCC4=CC(=O)C=C[C@]4(C)[C@@]3(F)[C@@H](O)C[C@]2(C)[C@@]1(O)C(=O)CO` [Dexamethasone, dexamethasone, reference compound], the “% inhibition (myeloperoxidase / ocular PMN content vs vehicle)” value in assay [1] (0.1 % w/v topical ocular) was 91* %. Besides, in assay [1] (0.1 % w/v), the “Myeloperoxidase (x ± standard deviation)” value was 15 ± 7 μM/min/100 mg.
`CCCCC[C@H](O)/C=C/C=C\C/C=C\C/C=C\CCCC(=O)O` [Compound 15S-HETE, 15S-HETE, reference compound]: the “TBUT, % of Baseline, ±S.D.” value in the assay on rabbit model of dry eye [2] (1 μM topical twice a day) is recorded as 54 ± 21^b % of Baseline. In the assay on rabbit model of dry eye [3] (1 μM), the “% Inhibition of Corneal Staining, ±S.D.” value is reported as 77 ± 18^b %.
`CCCCC[C@H](O)[C@H](O)CO` [Compound 2]: the “inhibition of LTB4-induced chemotaxis of neutrophils” value in the assay on neutrophils is recorded as “as potently as lipoxin A4”.
